Results reported in patent US20210032633A1, “DRUG FOR CHRONIC INFLAMMATORY DISEASE AND METHOD FOR EVALUATING SUSCEPTIBILITY TO CHRONIC INFLAMMATORY DISEASE” (National University Corporation Hokkaido University, priority 2018, published 2021).

Assays:
[1] = system: NEDD4 SP3 mRNA; assay: Knockdown efficiency: NEDD4 SP3 mRNA expression by qPCR in siRNA-transfected H4 cells; assay type: cell-based, human; conditions: under TNF-α stimulation, relative to GAPDH, remaining expression vs si-control
Method: (§1) siRNA (GCAAGACAAGAGAUGAUUUtt (SEQ ID No. 23), Ambion Silencer Select siRNA, Thermo Fisher Scientific) against NEDD4 SP3, and control siRNA (Ambion Silencer Select siRNA, Thermo Fisher Scientific) were transfected into a human glioma cell line (H4 cells) using Lipofectamine RNAiMAX (Thermo Fisher Scientific), and NEDD4 SP3 knockdown cells were constructed. After stimulating the control cells and the knockdown cells with IL-6 +TNFa, the IL-6 mRNA expression was measured by qPCR (primer sequence: […] (SEQ ID No. 24) and […] (SEQ ID No.25)). Moreover, the knockdown efficiency was confirmed using the NEDD4 SP3 expression as an index. The expression level indicates the relative amount with respect to the housekeeping gene GAPDH (primer sequence: […] (SEQ ID No.26) and CGCTCCTGGAAGATGGTG (SEQ ID No.27)).

[2] = system: IL-6 mRNA expression in H4 cells; assay: IL-6 mRNA expression by qPCR in H4 cells stimulated with IL-6 + TNFa (inflammation amplifier); assay type: cell-based, human; conditions: under IL-6 and TNF-α stimulation, relative to GAPDH, remaining expression vs si-control
Method: as §1

Substance: GCAAGACAAGAGAUGAUUUtt (SEQ ID No. 23) (GCAAGACAAGAGAUGAUUUTT; chemistry not given here) [NEDD4 si-SP3, siRNA against NEDD4 SP3, Ambion Silencer Select siRNA, Thermo Fisher Scientific]
- NEDD4 SP3 mRNA expression level compared to H4 cells introduced with si-control [1]: 4.2%
- IL-6 mRNA expression level compared to H4 cells introduced with si-control [2]: 41.0%
